According to patent US20260027068A1, “METHODS OF ADM[…]-KETAMINE” (Perception Neuroscience, Inc., priority 2022, published 2026):

Experiments:
[1] = Oxygen saturation (pulse oximetry, SpO2)
Procedure: The Investigational Medicinal Product (IMP) R(−)-ketamine hydrochloride in sterile water for intravenous injection was investigated as an […] treatment of TRD. The International Union of Pure and Applied Chemistry (IUPAC) name is of the IMP is (2R)-2-(2-chlorophenyl)-2-(methylamino)cyclohexan-1-one. Subjects received the solution at either 30 mg or 60 mg dose, or a placebo. The IMP or placebo was administered on Day 1 as a single IV infusion via an electronic infusion pump over 40 minutes. The duration of study participation for each subject was up to 29 days including a screening period, a 3-day in-clinic visit, and 2 follow-up visits. 101 subjects were enrolled in approximately 20 study centers in the EU and the US.
Tympanic or temporal temperature, heart rate, blood pressure (SBP/DBP), respiratory rate, and SpO2 were assessed. Blood pressure and pulse measurements will be assessed with a completely automated device while the subject is supine or semi-supine. Manual techniques will be used only if an automated device is not available. Blood pressure and pulse measurements should be preceded by at least 5 minutes of rest for the subject in a quiet setting without distractions (e.g., television, cell phones). An abnormal blood pressure value at screening may be repeated once after 5 minutes of relaxation to determine the subject's eligibility. Blood pressure was recorded using the same arm and position (supine or semi-supine) throughout the study, where possible. Vital signs (to be taken before blood collection for laboratory tests) consisted of 1 pulse and 3 blood pressure measurements (3 consecutive blood pressure readings will be recorded at intervals of at least 1 minute). The average of the 3 blood pressure readings was recorded in the CRF. A pulse oximeter was used to measure peripheral capillary oxygen saturation (SpO2) continuously from pre-dose until 4-hours post-dose. A pulse oximeter was clipped onto the finger or foot of the subject, and light will be sent through the finger or foot and measured on the other side.
In these tables, baseline value is defined as the last non-missing value prior to study drug administration.

subjects with TRD = conditions: single IV infusion 0.5 mg/kg; 7 subjects with TRD; cited from earlier work

CN[C@@]1(c2ccccc2Cl)CCCCC1=O.Cl [R(−)-ketamine, (2R)-2-(2-chlorophenyl)-2-(methylamino)cyclohexan-1-one]
Oxygen Saturation, Max ([1]; 30 mg, Day 1, 15 minutes): 100%
Oxygen Saturation, Mean ([1]; 30 mg, Day 1, 15 minutes): 98.3%
Oxygen Saturation, Median ([1]; 30 mg, Day 1, 15 minutes): 98.0%
Oxygen Saturation, Min ([1]; 30 mg, Day 1, 15 minutes): 96%
Oxygen Saturation, Max ([1]; 30 mg, Day 1, 40 minutes): 99%
Oxygen Saturation, Mean ([1]; 30 mg, Day 1, 40 minutes): 98.3%
Oxygen Saturation, Median ([1]; 30 mg, Day 1, 40 minutes): 98.0%
Oxygen Saturation, Min ([1]; 30 mg, Day 1, 40 minutes): 96%
Oxygen Saturation, Max ([1]; 30 mg, Day 1, 60 minutes): 100%
Oxygen Saturation, Mean ([1]; 30 mg, Day 1, 60 minutes): 98.2%
Oxygen Saturation, Median ([1]; 30 mg, Day 1, 60 minutes): 98.0%
Oxygen Saturation, Min ([1]; 30 mg, Day 1, 60 minutes): 96%
Oxygen Saturation, Max ([1]; 30 mg, Day 1, 2 hours): 100%
Oxygen Saturation, Mean ([1]; 30 mg, Day 1, 2 hours): 98.4%
Oxygen Saturation, Median ([1]; 30 mg, Day 1, 2 hours): 99.0%
Oxygen Saturation, Min ([1]; 30 mg, Day 1, 2 hours): 97%
Oxygen Saturation, Max ([1]; 30 mg, Day 1, 4 hours): 100%
Oxygen Saturation, Mean ([1]; 30 mg, Day 1, 4 hours): 98.3%
Oxygen Saturation, Median ([1]; 30 mg, Day 1, 4 hours): 98.0%
Oxygen Saturation, Min ([1]; 30 mg, Day 1, 4 hours): 96%
Oxygen Saturation, Change from Baseline, Max ([1]; 30 mg, to Day 1, 15 minutes): 2%
Oxygen Saturation, Change from Baseline, Mean ([1]; 30 mg, to Day 1, 15 minutes): −0.3%
Oxygen Saturation, Change from Baseline, Median ([1]; 30 mg, to Day 1, 15 minutes): 0.0%
Oxygen Saturation, Change from Baseline, Min ([1]; 30 mg, to Day 1, 15 minutes): −3%
Oxygen Saturation, Change from Baseline, Max ([1]; 30 mg, to Day 1, 40 minutes): 2%
Oxygen Saturation, Change from Baseline, Mean ([1]; 30 mg, to Day 1, 40 minutes): −0.4%
Oxygen Saturation, Change from Baseline, Median ([1]; 30 mg, to Day 1, 40 minutes): 0.0%
Oxygen Saturation, Change from Baseline, Min ([1]; 30 mg, to Day 1, 40 minutes): −2%
Oxygen Saturation, Change from Baseline, Max ([1]; 30 mg, to Day 1, 60 minutes): 1%
Oxygen Saturation, Change from Baseline, Mean ([1]; 30 mg, to Day 1, 60 minutes): −0.5%
Oxygen Saturation, Change from Baseline, Median ([1]; 30 mg, to Day 1, 60 minutes): 0.0%
Oxygen Saturation, Change from Baseline, Min ([1]; 30 mg, to Day 1, 60 minutes): −3%
Oxygen Saturation, Change from Baseline, Max ([1]; 30 mg, to Day 1, 2 hours): 3%
Oxygen Saturation, Change from Baseline, Mean ([1]; 30 mg, to Day 1, 2 hours): −0.2%
Oxygen Saturation, Change from Baseline, Median ([1]; 30 mg, to Day 1, 2 hours): 0.0%
Oxygen Saturation, Change from Baseline, Min ([1]; 30 mg, to Day 1, 2 hours): −2%
Oxygen Saturation, Change from Baseline, Max ([1]; 30 mg, to Day 1, 4 hours): 3%
Oxygen Saturation, Change from Baseline, Mean ([1]; 30 mg, to Day 1, 4 hours): −0.4%
Oxygen Saturation, Change from Baseline, Median ([1]; 30 mg, to Day 1, 4 hours): 0.0%
Oxygen Saturation, Change from Baseline, Min ([1]; 30 mg, to Day 1, 4 hours): −3%
Oxygen Saturation, Max ([1]; 60 mg, Day 1, 15 minutes): 100%
Oxygen Saturation, Mean ([1]; 60 mg, Day 1, 15 minutes): 98.2%
Oxygen Saturation, Median ([1]; 60 mg, Day 1, 15 minutes): 98.0%
Oxygen Saturation, Min ([1]; 60 mg, Day 1, 15 minutes): 96%
Oxygen Saturation, Max ([1]; 60 mg, Day 1, 40 minutes): 100%
Oxygen Saturation, Mean ([1]; 60 mg, Day 1, 40 minutes): 98.1%
Oxygen Saturation, Median ([1]; 60 mg, Day 1, 40 minutes): 98.0%
Oxygen Saturation, Min ([1]; 60 mg, Day 1, 40 minutes): 95%
Oxygen Saturation, Max ([1]; 60 mg, Day 1, 60 minutes): 100%
Oxygen Saturation, Mean ([1]; 60 mg, Day 1, 60 minutes): 98.1%
Oxygen Saturation, Median ([1]; 60 mg, Day 1, 60 minutes): 98.0%
Oxygen Saturation, Min ([1]; 60 mg, Day 1, 60 minutes): 95%
Oxygen Saturation, Max ([1]; 60 mg, Day 1, 2 hours): 100%
Oxygen Saturation, Mean ([1]; 60 mg, Day 1, 2 hours): 98.2%
Oxygen Saturation, Median ([1]; 60 mg, Day 1, 2 hours): 98.0%
Oxygen Saturation, Min ([1]; 60 mg, Day 1, 2 hours): 97%
Oxygen Saturation, Max ([1]; 60 mg, Day 1, 4 hours): 100%
Oxygen Saturation, Mean ([1]; 60 mg, Day 1, 4 hours): 98.3%
Oxygen Saturation, Median ([1]; 60 mg, Day 1, 4 hours): 99.0%
Oxygen Saturation, Min ([1]; 60 mg, Day 1, 4 hours): 96%
Oxygen Saturation, Change from Baseline, Max ([1]; 60 mg, to Day 1, 15 minutes): 4%
Oxygen Saturation, Change from Baseline, Mean ([1]; 60 mg, to Day 1, 15 minutes): 0.0%
Oxygen Saturation, Change from Baseline, Median ([1]; 60 mg, to Day 1, 15 minutes): 0.0%
Oxygen Saturation, Change from Baseline, Min ([1]; 60 mg, to Day 1, 15 minutes): −2%
Oxygen Saturation, Change from Baseline, Max ([1]; 60 mg, to Day 1, 40 minutes): 2%
Oxygen Saturation, Change from Baseline, Mean ([1]; 60 mg, to Day 1, 40 minutes): −0.1%
Oxygen Saturation, Change from Baseline, Median ([1]; 60 mg, to Day 1, 40 minutes): 0.0%
Oxygen Saturation, Change from Baseline, Min ([1]; 60 mg, to Day 1, 40 minutes): −2%
Oxygen Saturation, Change from Baseline, Max ([1]; 60 mg, to Day 1, 60 minutes): 3%
Oxygen Saturation, Change from Baseline, Mean ([1]; 60 mg, to Day 1, 60 minutes): −0.1%
Oxygen Saturation, Change from Baseline, Median ([1]; 60 mg, to Day 1, 60 minutes): 0.0%
Oxygen Saturation, Change from Baseline, Min ([1]; 60 mg, to Day 1, 60 minutes): −4%
Oxygen Saturation, Change from Baseline, Max ([1]; 60 mg, to Day 1, 2 hours): 3%
Oxygen Saturation, Change from Baseline, Mean ([1]; 60 mg, to Day 1, 2 hours): 0.0%
Oxygen Saturation, Change from Baseline, Median ([1]; 60 mg, to Day 1, 2 hours): 0.0%
Oxygen Saturation, Change from Baseline, Min ([1]; 60 mg, to Day 1, 2 hours): −2%
Oxygen Saturation, Change from Baseline, Max ([1]; 60 mg, to Day 1, 4 hours): 1%
Oxygen Saturation, Change from Baseline, Mean ([1]; 60 mg, to Day 1, 4 hours): 0.2%
Oxygen Saturation, Change from Baseline, Median ([1]; 60 mg, to Day 1, 4 hours): 0.0%
Oxygen Saturation, Change from Baseline, Min ([1]; 60 mg, to Day 1, 4 hours): −2%
Antidepressant effects and safety profile (subjects with TRD): fast-onset and sustained antidepressant effects with a favorable safety profile
